Read-outs that look alike come from different tables or passages of the source.
Assays:
[1] = test system: GR induced AP-1 transrepression; assay: In vitro assay to measure GR induced AP-1 transrepression (luciferase reporter, A549 cells); type: cell-based; details: concentration of ≦10 μM; 10 ng/ml PMA; typical value
Procedure: The AP-1 assay is a cell based luciferase reporter assay. A549 cells, which contain endogenous glucocorticoid receptor, were stably transfected with an AP-1 DNA binding site attached to the luciferase gene. Cells are then grown in RPMI+10% fetal calf serum (charcoal-treated)+Penicillin/Streptomycin with 0.5 mg/ml geneticin. Cells are plated the day before the assay at approximately 40000 cells/well. On assay day, the media is removed by aspiration and 20 μl assay buffer (RPMI without phenol red+10% FCS (charcoal-treated)+Pen/Strep) is added to each well. At this point either 20 μl assay buffer (control experiments), the compounds of the present invention (“test compounds”) (dissolved in DMSO and added at varying concentrations) or dexamethasome (100 nM in DMSO, positive control) are added to each well. The plates are then pre-incubated for 15 minutes at 37° C., followed by stimulation of the cells with 10 ng/ml PMA. The plates are then incubated for 7 hrs at 37° C. after which 40 μl luciferase substrate reagent is added to each well. Activity is measured by analysis in a luminometer as compared to control experiments treated with buffer or dexamethasome. […] The control, dexamethasone, at a concentration of ≦10 μM typically suppresses activity by 65%.

[2] = target: T1, AR (Rattus norvegicus, UniProt P15207); details: castrated rats
T1 sequence (P15207 1-902): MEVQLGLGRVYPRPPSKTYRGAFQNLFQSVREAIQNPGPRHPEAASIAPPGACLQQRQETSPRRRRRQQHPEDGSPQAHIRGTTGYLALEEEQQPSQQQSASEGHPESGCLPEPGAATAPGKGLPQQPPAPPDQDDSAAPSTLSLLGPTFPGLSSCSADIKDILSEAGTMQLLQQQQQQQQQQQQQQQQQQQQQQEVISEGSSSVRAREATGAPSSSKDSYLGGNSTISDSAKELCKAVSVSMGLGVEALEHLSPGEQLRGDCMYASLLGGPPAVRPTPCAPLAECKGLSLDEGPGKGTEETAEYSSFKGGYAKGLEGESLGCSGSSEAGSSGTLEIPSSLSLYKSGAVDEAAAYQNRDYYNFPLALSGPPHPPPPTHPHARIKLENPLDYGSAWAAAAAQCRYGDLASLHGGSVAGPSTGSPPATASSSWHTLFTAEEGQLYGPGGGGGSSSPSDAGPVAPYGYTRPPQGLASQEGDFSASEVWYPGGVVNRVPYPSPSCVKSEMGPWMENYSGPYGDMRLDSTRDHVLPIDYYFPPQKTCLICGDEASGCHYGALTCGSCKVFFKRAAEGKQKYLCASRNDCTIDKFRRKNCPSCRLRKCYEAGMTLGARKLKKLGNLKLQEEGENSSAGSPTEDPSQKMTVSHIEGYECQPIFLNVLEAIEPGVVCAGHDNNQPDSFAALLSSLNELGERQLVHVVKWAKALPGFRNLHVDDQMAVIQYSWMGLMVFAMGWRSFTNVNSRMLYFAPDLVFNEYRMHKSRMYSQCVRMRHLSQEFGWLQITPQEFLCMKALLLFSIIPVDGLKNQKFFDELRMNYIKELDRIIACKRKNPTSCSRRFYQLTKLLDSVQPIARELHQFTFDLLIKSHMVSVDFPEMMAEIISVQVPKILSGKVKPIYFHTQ
Text: The activity of compounds of the present invention as AR agonists was investigated in an immature male rat model, a recognized test of anabolic effects in muscle and sustaining effects in sex organs for a given compound, as described in L. G. Hershberger et al., Proc. Soc. […] Nem.
The basis of this assay lies in the well-defined action of androgenic agents on the maintenance and growth of muscle tissues and sexual accessory organs in animals and man. […] J. Anat. […] Ital. Biol. Sper. […] II. […] Ital. Biol. Sper. […] As described above, the effects of androgens on maintenance of male sexual accessory organs, such as the prostate and seminal vesicles, is well described. Castration results in rapid involution and atrophy of the prostate and seminal vesicles. This effect can be reversed by exogenous addition of androgens. Since both the levator ani muscle and the male sex organs are the tissues most responsive to the effects of androgenic agents, this model is used to determine the androgen dependent reversal of atrophy in the levator ani muscle and the sex accessory organs in immature castrated rats. Sexually mature rats (200-250 g, 6-8 weeks-old, Sprague-Dawley, Harlan) were acquired castrated from the vendor (Taconic). The rats were divided into groups and treated daily for 7 to 14 days with one of the following: • 1. Control vehicle • 2. […]

[3] = target: T1, AR

Structure (SMILES): C[C@@H]1C[C@H]2[C@@H]3CCC4=CC(=O)C=C[C@]4(C)[C@@]3(F)[C@@H](O)C[C@]2(C)[C@@]1(O)C(=O)CO [dexamethasone]
- suppression of activity (% inhibition of the reporter system vs buffer control with PMA alone) [1]: 65%

Structure (SMILES): CCC(=O)O[C@H]1CC[C@H]2[C@@H]3CCC4=CC(=O)CC[C@]4(C)[C@H]3CC[C@]12C [TP, Testosterone Propionate]
- EC50 (increase in organ weight) ([2]; dosing for 3 days): ~0.03 mg
- potency relative to free T ([2]; organ weight): 10-30 fold
- ED80 (organ weight increase) ([3]; immature castrated rat model): 0.1 mg
- EC50 (increase in organ weight) ([3]; immature castrated rats, dosing for 3 days): ~0.03 mg
- potency relative to free T ([3]; immature castrated rats, organ weight): 10-30 fold

— US7655688B2, “Fused cyclic succinimide compounds and analogs thereof, modulators of nuclear hormone receptor function” (Bristol-Myers Squibb Company, priority 2001, dated 2010)
